Results on 25 molecules are retold here after patent US7608619B2, “Substituted oxazole compounds with analgesic activity” (Gruenenthal GmbH, priority 2005, dated 2009).

In one assay the target is T1, human μ-opiate receptor (Homo sapiens, UniProt P35372).
T1 construct: purchased Nen company, Zaventem, Belgium RB-HOM; host or cells: CHO-K1 cells (membrane preparation)
T1 sequence (P35372 whole entry): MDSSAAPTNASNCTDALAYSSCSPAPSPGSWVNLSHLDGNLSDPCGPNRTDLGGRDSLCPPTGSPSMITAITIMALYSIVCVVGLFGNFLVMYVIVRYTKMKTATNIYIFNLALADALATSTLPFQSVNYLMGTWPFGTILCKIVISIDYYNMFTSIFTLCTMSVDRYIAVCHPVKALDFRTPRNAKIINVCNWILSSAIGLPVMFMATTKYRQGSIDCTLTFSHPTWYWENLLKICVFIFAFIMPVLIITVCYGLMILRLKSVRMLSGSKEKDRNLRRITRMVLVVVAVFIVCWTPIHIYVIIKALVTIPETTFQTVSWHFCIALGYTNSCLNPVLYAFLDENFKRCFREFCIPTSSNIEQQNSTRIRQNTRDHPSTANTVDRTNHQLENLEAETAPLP
The assay can be described thus: Affinity for the human μ-opiate receptor ([3H]-naloxone displacement, SPA, CHO-K1 membrane preparation). The conditions noted are these: test substance 1 μmole/l; displacement of 1 nmole/l [3H]-naloxone; percentage inhibition of the specific binding. The procedure, abridged: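 [3H]-naloxone (1 nmol/l) displacement by SPA with WGA beads, using membranes of CHO-K1 cells expressing the receptor, in 50 mmol/l Tris-HCl with 0.05% azide and 0.06% BSA; 90 min at room temperature. Non-specific binding defined with 25 μmol/l naloxone. Value is % inhibition of specific binding at 1 μmol/l test compound.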
Consider `CN(C)C(c1cccs1)C1CCC(C(c2nc(Cc3ccccc3)c(N3CCCC3)o2)N2CCN(c3ccc(F)cc3)CC2)CC1` (stereo not shown) [compound 142, [(4.-{(4-benzyl-5-pyrrolidin-1-yl-oxazol-2-yl)-[4-(4-fluorophenyl)-piperazin-1-yl]-me.thyl}-cyclohexyl)-thiophen-2-yl-methyl]-dimethylamine], for which the “μ-opioid receptor, % inhibition [1 μM]” value was determined as 85%.

Staying with this assay, now noted: test substance 1 μmole/l; displacement of 1 nmole/l [3H]-naloxone; percentage inhibition of the specific binding; read-out: μ-opioid receptor, % inhibition [1 μM].
By inhibition is commonly meant the share of the control response that was lost under treatment. For `COc1ccc(N2CCN(C(c3nc(Cc4ccccc4)c(N4CCCC4)o3)C3CCC(C(c4cccc(F)c4)N(C)C)CC3)CC2)cc1` (stereo not shown) [compound 123, [(4-{(4-benzyl-5-pyrrolidin-1-yl-oxazol-2-yl)-[4-(4-methoxyphenyl)-piperazin-1-yl]-methyl}-cyclohexyl)-(3-fluorophenyl)-methyl]-dimethylamine], the inhibition at 1 µM stood at 66%.
The same measure, in the same setting: in the case of `COc1ccc(N2CCN(C(c3nc(Cc4ccccc4)c(N4CCOCC4)o3)C3CCC(C(c4cccc(F)c4)N(C)C)CC3)CC2)cc1` (stereo not shown) [compound 124, [(4-{(4-benzyl-5-morpholin-4-yl-oxazol-2-yl)-[4-(4-methoxyphenyl)-piperazin-1-yl]-methyl}-cyclohexyl)-(3-fluorophenyl)-methyl]-dimethylamine] it was 60%; in that of `CN(C)C(c1cccc(F)c1)C1CCC(C(c2nc(Cc3ccccc3)c(N3CCCC3)o2)N2CCc3ccccc3C2)CC1` (stereo not shown) [compound 125, [{4-[(4-benzyl-5-pyrrolidin-1-yl-oxazol-2-yl)-(3,4-dihydro-1H-isoquinolin-2-yl)-methyl]-cyclohexyl}-(3-fluorophenyl)-methyl]-dimethylamine], 83%.
In the case of `CN(C)C(c1cccc(F)c1)C1CCC(C(c2nc(Cc3ccccc3)c(N3CCOCC3)o2)N2CCc3ccccc3C2)CC1` (stereo not shown) [compound 126, [{4-[(4-benzyl-5-morpholin-4-yl-oxazol-2-yl)-(3,4-dihydro-1H-isoquinolin-2-yl)-methyl]-cyclohexyl}-(3-fluorophenyl)-methyl]-dimethylamine], the inhibition at 1 µM was 76%.
With `COc1ccc(N2CCN(c3oc(C(C4CCC(C(c5cccc(F)c5)N(C)C)CC4)N4CCc5ccccc5C4)nc3Cc3ccccc3)CC2)cc1` (stereo not shown) [compound 127, [{4-[{4-benzyl-5-[4-(4-methoxy-phenyl)-piperazin-1-yl]-oxazol-2-yl}-(3,4-dihydro-1H-isoquinolin-2-yl)-methyl]-cyclohexyl}-(3-fluorophenyl)-methyl]-dimethylamine], the inhibition at 1 µM turned out to be 73%.
The same measure, in the same setting: in the case of `CC1CN(c2oc(C(C3CCC(C(c4cccc(F)c4)N(C)C)CC3)N3CCc4ccccc4C3)nc2Cc2ccccc2)CC(C)O1` (stereo not shown) [compound 128, [{4-[[4-benzyl-5-(2,6-dimethyl-morpholin-4-yl)-oxazol-2-yl]-(3,4-dihydro-1H-isoquinolin-2-yl)-methyl]-cyclohexyl}-(3-fluorophenyl)-methyl]-dimethylamine] it was 71%; in that of `CN(C)C(c1ccc(Cl)cc1)C1CCC(C(c2nc(Cc3ccccc3)c(N3CCCC3)o2)N2CCOCC2)CC1` (stereo not shown) [compound 129, [{4-[(4-benzyl-5-pyrrolidin-1-yl-oxazol-2-yl)-morpholin-4-yl-methyl]-cyclohexyl}-(4-chlorophenyl)-methyl]-dimethylamine], 75%; in that of `CN(C)C(c1ccc(Cl)cc1)C1CCC(C(c2nc(Cc3ccccc3)c(N3CCOCC3)o2)N2CCOCC2)CC1` (stereo not shown) [compound 130, [{4-[(4-benzyl-5-morpholin-4-yl-oxazol-2-yl)-morpholin-4-yl-methyl]-cyclohexyl}-(4-chlorophenyl)-methyl]-dimethylamine], 77%.
With `COc1ccc(N2CCN(c3oc(C(C4CCC(C(c5ccc(Cl)cc5)N(C)C)CC4)N4CCOCC4)nc3Cc3ccccc3)CC2)cc1` (stereo not shown) [compound 131, [[4-({4-benzyl-5-[4-(4-methoxyphenyl)-piperazin-1-yl]-oxazol-2-yl}-morpholin-4-yl-methyl)-cyclohexyl]-(4-chlorophenyl)-methyl]-dimethylamine], the inhibition at 1 µM worked out at 64%.
Take `CC1CN(c2oc(C(C3CCC(C(c4ccc(Cl)cc4)N(C)C)CC3)N3CCOCC3)nc2Cc2ccccc2)CC(C)O1` (stereo not shown) [compound 132, [(4-{[4-benzyl-5-(2,6-dimethylmorpholin-4-yl)-oxazol-2-yl]-morpholin-4-yl-methyl}-cyclohexyl)-(4-chlorophenyl)-methyl]-dimethylamine]: the inhibition at 1 µM is 64%.
For the molecule `CN(C)C(c1ccc(Cl)cc1)C1CCC(C(c2nc(Cc3ccccc3)c(N3CCCC3)o2)N2CCN(c3ccc(F)cc3)CC2)CC1` (stereo not shown) [compound 133, [(4-{(4-benzyl-5-pyrrolidin-1-yl-oxazol-2-yl)-[4-(4-fluorophenyl)-piperazin-1-yl]-methyl}-cyclohexyl)-(4-chlorophenyl)-methyl]-dimethylamine], the inhibition at 1 µM stood at 64%.
For the molecule `COc1ccc(N2CCN(C(c3nc(Cc4ccccc4)c(N4CCCC4)o3)C3CCC(C(c4ccc(Cl)cc4)N(C)C)CC3)CC2)cc1` (stereo not shown) [compound 134, [(4-{(4-benzyl-5-pyrrolidin-1-yl-oxazol-2-yl)-[4-(4-methoxyphenyl)-piperazin-1-yl]-methyl}-cyclohexyl)-(4-chlorophenyl)-methyl]-dimethylamine], the inhibition at 1 µM was found to be 72%.
For `COc1ccc(N2CCN(C(c3nc(Cc4ccccc4)c(N4CCOCC4)o3)C3CCC(C(c4ccc(Cl)cc4)N(C)C)CC3)CC2)cc1` (stereo not shown) [compound 135, [(4-{(4-benzyl-5-morpholin-4-yl-oxazol-2-yl)-[4-(4-methoxyphenyl)-piperazin-1-yl]-methyl}-cyclohexyl)-(4-chlorophenyl)-methyl]-dimethylamine], the inhibition at 1 µM worked out at 70%.
Regarding `COc1ccc(N2CCN(C(c3nc(Cc4ccccc4)c(N4CC(C)OC(C)C4)o3)C3CCC(C(c4ccc(Cl)cc4)N(C)C)CC3)CC2)cc1` (stereo not shown) [compound 136, [(4-{[4-benzyl-5-(2,6-dimethylmorpholin-4-yl)-oxazol-2-yl]-[4-(4-methoxy-phenyl)-piperazin-1-yl]-methyl}-cyclohexyl)-(4-chlorophenyl)-methyl]-dimethylamine], the inhibition at 1 µM amounted to 62%.
On the same count and under the same terms, in the case of `CN(C)C(c1ccc(Cl)cc1)C1CCC(C(c2nc(Cc3ccccc3)c(N3CCCC3)o2)N2CCc3ccccc3C2)CC1` (stereo not shown) [compound 137, [{4-[(4-benzyl-5-pyrrolidin-1-yl-oxazol-2-yl)-(3,4-dihydro-1H-isoquinolin-2-yl)-methyl]-cyclohexyl}-(4-chlorophenyl)-methyl]-dimethylamine] it was 85%.
Take `CN(C)C(c1cccs1)C1CCC(C(c2nc(Cc3ccccc3)c(N3CCCC3)o2)N2CCOCC2)CC1` (stereo not shown) [compound 138, ({4-[(4-benzyl-5-pyrrolidin-1-yl-oxazol-2-yl)-morpholin-4-yl-methyl]-cyclohexyl}-thiophen-2-yl-methyl)-dimethylamine]: the inhibition at 1 µM turned out to be 91%.
Turning to `CN(C)C(c1cccs1)C1CCC(C(c2nc(Cc3ccccc3)c(N3CCOCC3)o2)N2CCOCC2)CC1` (stereo not shown) [compound 139, ({4-[(4-benzyl-5-morpholin-4-yl-oxazol-2-yl)-morpholin-4-yl-methyl]-cyclohexyl}-thiophen-2-yl-methyl)-dimethylamine], the inhibition at 1 µM is 72%.
`COc1ccc(N2CCN(c3oc(C(C4CCC(C(c5cccs5)N(C)C)CC4)N4CCOCC4)nc3Cc3ccccc3)CC2)cc1` (stereo not shown) [compound 140, {[4-({4-benzyl-5-[4-(4-methoxyphenyl)-piperazin-1-yl]-oxazol-2-yl}-morpholin-4-yl-methyl)-cyclohexyl]-thiophen-2-yl-methyl}-dimethylamine]: the inhibition at 1 µM was 67%.
Still for that read-out and setting: in the case of `CC1CN(c2oc(C(C3CCC(C(c4cccs4)N(C)C)CC3)N3CCOCC3)nc2Cc2ccccc2)CC(C)O1` (stereo not shown) [compound 141, [(4-{[4-benzyl-5-(2,6-dimethylmorpholin-4-yl)-oxazol-2-yl]-morpholin-4-yl-methyl}-cyclohexyl)-thiophen-2-yl-methyl]-dimethylamine] it was 65%; in that of `COc1ccc(N2CCN(C(c3nc(Cc4ccccc4)c(N4CCCC4)o3)C3CCC(C(c4cccs4)N(C)C)CC3)CC2)cc1` (stereo not shown) [compound 143, [(4-{(4-benzyl-5-pyrrolidin-1-yl-oxazol-2-yl)-[4-(4-methoxyphenyl)-piperazin-1-yl]-methyl}-cyclohexyl)-thiophen-2-yl-methyl]-dimethylamine], 77%; in that of `COc1ccc(N2CCN(C(c3nc(Cc4ccccc4)c(N4CCOCC4)o3)C3CCC(C(c4cccs4)N(C)C)CC3)CC2)cc1` (stereo not shown) [compound 144, [(4-{(4-benzyl-5-morpholin-4-yl-oxazol-2-yl)-[4-(4-methoxy-phenyl)-piperazin-1-yl]-methyl}-cyclohexyl)-thiophen-2-yl-methyl]-dimethylamine], 64%.
For the molecule `COc1ccc(N2CCN(C(c3nc(Cc4ccccc4)c(N4CC(C)OC(C)C4)o3)C3CCC(C(c4cccs4)N(C)C)CC3)CC2)cc1` (stereo not shown) [compound 145, [(4-{[4-benzyl-5-(2,6-dimethylmorpholin-4-yl)-oxazol-2-yl]-[4-(4-methoxy-phenyl)-piperazin-1-yl]-methyl}-cyclohexyl)-thiophen-2-yl-methyl]-dimethylamine], the inhibition at 1 µM was 69%.
On the same count and under the same terms, in the case of `CN(C)C(c1cccs1)C1CCC(C(c2nc(Cc3ccccc3)c(N3CCCC3)o2)N2CCc3ccccc3C2)CC1` (stereo not shown) [compound 146, ({4-[(4-benzyl-5-pyrrolidin-1-yl-oxazol-2-yl)-(3,4-dihydro-1H-isoquinolin-2-yl)-methyl]-cyclohexyl}-thiophen-2-yl-methyl)-dimethylamine] it was 92%; in that of `COc1ccc(N2CCN(c3oc(C(C4CCC(C(c5cccs5)N(C)C)CC4)N4CCc5ccccc5C4)nc3Cc3ccccc3)CC2)cc1` (stereo not shown) [compound 147, ({4-[{4-benzyl-5-[4-(4-methoxyphenyl)-piperazin-1-yl]-oxazol-2-yl}-(3,4-dihydro-1H-isoquinolin-2-yl)-methyl]-cyclohexyl}-thiophen-2-yl-methyl)-dimethylamine], 91%.
